Measurements published in ChEMBL document CHEMBL4251601 (Eur J Med Chem, 2018).

How the values were obtained:
[1] = Oral bioavailability in Sprague-Dawley rat at 5 mg/kg administered as single dose by LC-MS/MS analysis; type: ADME, organism-based; conditions: Sprague-Dawley, in vivo
[2] = biological target: Cyclin-dependent kinase 4/cyclin D1 (Homo sapiens) (UniProt P11802+P24385); assay: Inhibition of recombinant full length human GST-tagged CDK4/Cyclin-D1 expressed in baculovirus expression system at 0.1 uM by TR-FRET assay relative to control
[3] = biological target: Serine/threonine-protein kinase Chk2 (Homo sapiens) (UniProt O96017); assay: Inhibition of recombinant full length human His-tagged CHEK2 expressed in baculovirus expression system at 0.1 uM by Z'-Lyte assay relative to control
[4] = biological target: Epidermal growth factor receptor (Homo sapiens) (UniProt P00533); assay: Inhibition of recombinant human GST-tagged EGFR cytoplasmic domain expressed in baculovirus expression system at 0.1 uM by TR-FRET assay relative to control
[5] = biological target: G protein-coupled receptor kinase 5 (Homo sapiens) (UniProt P34947); assay: Inhibition of recombinant human full length GST-tagged GRK5 expressed in baculovirus expression system at 0.1 uM by Z'-Lyte assay relative to control
[6] = biological target: Tyrosine-protein kinase Lck (Homo sapiens) (UniProt P06239); assay: Inhibition of recombinant human full length His-tagged LCK expressed in baculovirus expression system at 0.1 uM by Z'-Lyte assay relative to control
[7] = biological target: Mitogen-activated protein kinase 14 (Homo sapiens) (UniProt Q16539); assay: Inhibition of recombinant human full length GST-tagged p38alpha expressed in Escherichia coli at 0.1 uM by Z'-Lyte assay relative to control
[8] = biological target: Serine/threonine-protein kinase PAK 1 (Homo sapiens) (UniProt Q13153); assay: Inhibition of recombinant human full length GST-tagged PAK1 expressed in baculovirus expression system at 0.1 uM by Z'-Lyte assay relative to control
[9] = biological target: Proto-oncogene tyrosine-protein kinase Src (Homo sapiens) (UniProt P12931); assay: Inhibition of recombinant human full length His-tagged SRC expressed in baculovirus expression system at 0.1 uM by Z'-Lyte assay relative to control
[10] = biological target: Tyrosine-protein kinase receptor TYRO3 (Homo sapiens) (UniProt Q06418); assay: Inhibition of recombinant human GST-tagged TYRO3 cytoplasmic domain (451 to 890 residues) expressed in baculovirus expression system at 0.1 uM by Z'-Lyte assay relative to control
[11] = biological target: RAC-beta serine/threonine-protein kinase (Homo sapiens) (UniProt P31751); assay: Inhibition of recombinant full length human His-tagged AKT2 expressed in baculovirus expression system at 1 uM by TR-FRET assay relative to control
[12] = system: ALK tyrosine kinase receptor (Homo sapiens), Q9UM73 [L1196M]; assay: Inhibition of recombinant N-terminal GST-tagged human ALK cytoplasmic domain (1058 to 1620 residues) L1196M mutant expressed in baculovirus expression system at 1 uM by TR-FRET assay relative to control
[13] = biological target: ALK tyrosine kinase receptor (Homo sapiens) (UniProt Q9UM73); assay: Inhibition of recombinant N-terminal GST-tagged human ALK cytoplasmic domain (1058 to 1620 residues) expressed in baculovirus expression system at 1 uM by TR-FRET assay relative to control
[14] = biological target: Tyrosine-protein kinase receptor UFO (Homo sapiens) (UniProt P30530); assay: Inhibition of recombinant human N-terminal GST tagged AXL (473-end residues) expressed in baculovirus infected Sf9 cells at 1 uM by Z'-Lyte assay relative to control
[15] = biological target: Tyrosine-protein kinase BTK (Homo sapiens) (UniProt Q06187); assay: Inhibition of recombinant full length human His-tagged BTK expressed in baculovirus expression system at 1 uM by TR-FRET assay relative to control
[16] = system: Epidermal growth factor receptor (Homo sapiens), P00533 [UNDEFINED MUTATION]; assay: Inhibition of recombinant human EGFR d746 to 750 deletion/T790M mutant at 1 uM by TR-FRET assay relative to control
[17] = biological target: G protein-coupled receptor kinase 5 (Homo sapiens) (UniProt P34947); assay: Inhibition of recombinant human full length GST-tagged GRK5 expressed in baculovirus expression system at 1 uM by Z'-Lyte assay relative to control
[18] = biological target: Tyrosine-protein kinase Lck (Homo sapiens) (UniProt P06239); assay: Inhibition of recombinant human full length His-tagged LCK expressed in baculovirus expression system at 1 uM by Z'-Lyte assay relative to control
[19] = biological target: Mitogen-activated protein kinase 14 (Homo sapiens) (UniProt Q16539); assay: Inhibition of recombinant human full length GST-tagged p38alpha expressed in Escherichia coli at 1 uM by Z'-Lyte assay relative to control
[20] = biological target: Serine/threonine-protein kinase PAK 1 (Homo sapiens) (UniProt Q13153); assay: Inhibition of recombinant human full length GST-tagged PAK1 expressed in baculovirus expression system at 1 uM by Z'-Lyte assay relative to control
[21] = biological target: Serine/threonine-protein kinase PAK 2 (Homo sapiens) (UniProt Q13177); assay: Inhibition of recombinant human full length GST-tagged PAK2 expressed in baculovirus expression system at 1 uM by Z'-Lyte assay relative to control
[22] = biological target: cAMP-dependent protein kinase catalytic subunit alpha (Homo sapiens) (UniProt P17612); assay: Inhibition of recombinant human His-tagged PKA expressed in Escherichia coli at 1 uM by Z'-Lyte assay relative to control
[23] = biological target: Protein-tyrosine kinase 6 (Homo sapiens) (UniProt Q13882); assay: Inhibition of recombinant human full length His-tagged PTK6 expressed in baculovirus expression system at 1 uM by TR-FRET assay relative to control
[24] = AUC (0 to 24 hrs) in ICR mouse at 5 mg/kg, po administered as single dose by LC-MS/MS analysis; type: ADME, organism-based; parameters: time < 24 hr, dose 5 mg/kg, route oral; conditions: in vivo
[25] = Half life in CD-1 mouse plasma at 10 mg/kg, po administered as single dose by LC-MS/MS analysis; type: ADME, organism-based
[26] = AUC (0 to infinity) in CD-1 mouse plasma at 10 mg/kg, po administered as single dose by LC-MS/MS analysis; type: ADME, organism-based; parameters: dose 10 mg/kg, time infinity, route oral
[27] = Fraction unbound in CD-1 mouse brain at 2 uM incubated for 4 hrs by LC/MS/MS analysis based equillibriun dialysis method; type: ADME, tissue-based
[28] = Unbound AUC (0 to 24 hrs) in CD-1 mouse brain at 10 mg/kg, po administered as single dose by LC-MS/MS analysis; type: ADME, organism-based; conditions: in vivo
U-87 MG = assay: Antitumor activity against luciferase-fused human U87MG cells orthotopically xenografted in nude mouse assessed as tumor growth inhibition at 25 mg/kg, po qd for 4 weeks by bioluminescence imaging relative to control; type: functional, U-87MG ATCC; conditions: 672 h, read-out: TGI
Mus musculus [29] = assay: Toxicity in nude mouse orthotopically xenografted with luciferase-fused human U87MG cells assessed as body weight loss at 3.125 to 25 mg/kg, po qd for 5 weeks; type: organism-based; conditions: in vivo, 840 h
Mus musculus [30] = assay: Toxicity in nude mouse orthotopically xenografted with luciferase-fused human U87MG cells assessed as body weight loss at 50 mg/kg, po qd for 5 weeks and measured on day 28 relative to control; type: organism-based; conditions: in vivo, 840 h
[31] = system: Mitogen-activated protein kinase kinase kinase 7; assay: Inhibition of TAK1 (unknown origin) at 1 uM by TR-FRET assay relative to control; conditions: Homo sapiens

Chain of Serine/threonine-protein kinase PAK 1 (Homo sapiens) (Q13153 whole entry): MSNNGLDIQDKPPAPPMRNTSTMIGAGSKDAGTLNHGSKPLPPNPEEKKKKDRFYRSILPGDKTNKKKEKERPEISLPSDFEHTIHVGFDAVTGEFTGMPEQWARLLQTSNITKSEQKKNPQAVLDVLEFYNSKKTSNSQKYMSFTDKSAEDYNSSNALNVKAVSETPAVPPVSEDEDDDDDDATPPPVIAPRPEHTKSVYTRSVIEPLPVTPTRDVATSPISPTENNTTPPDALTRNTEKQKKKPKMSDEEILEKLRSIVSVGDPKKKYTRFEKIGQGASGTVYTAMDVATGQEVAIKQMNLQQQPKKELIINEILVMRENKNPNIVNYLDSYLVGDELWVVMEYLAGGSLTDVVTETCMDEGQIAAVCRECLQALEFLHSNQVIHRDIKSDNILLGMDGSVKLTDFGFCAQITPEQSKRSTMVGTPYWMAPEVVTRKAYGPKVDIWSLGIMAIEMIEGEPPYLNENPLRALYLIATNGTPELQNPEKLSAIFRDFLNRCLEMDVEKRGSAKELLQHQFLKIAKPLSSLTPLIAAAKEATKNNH
Chain of Mitogen-activated protein kinase 14 (Homo sapiens) (Q16539 whole entry): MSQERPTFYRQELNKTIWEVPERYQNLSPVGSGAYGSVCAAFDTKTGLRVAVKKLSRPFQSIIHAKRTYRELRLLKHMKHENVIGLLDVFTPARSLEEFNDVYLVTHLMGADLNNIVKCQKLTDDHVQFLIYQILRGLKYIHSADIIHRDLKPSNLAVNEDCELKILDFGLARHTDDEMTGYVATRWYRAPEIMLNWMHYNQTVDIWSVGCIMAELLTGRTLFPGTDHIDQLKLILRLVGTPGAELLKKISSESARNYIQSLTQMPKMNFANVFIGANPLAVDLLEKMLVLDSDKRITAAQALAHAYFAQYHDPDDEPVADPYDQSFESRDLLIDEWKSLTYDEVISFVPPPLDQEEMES
Chain of G protein-coupled receptor kinase 5 (Homo sapiens) (P34947 whole entry, looked up): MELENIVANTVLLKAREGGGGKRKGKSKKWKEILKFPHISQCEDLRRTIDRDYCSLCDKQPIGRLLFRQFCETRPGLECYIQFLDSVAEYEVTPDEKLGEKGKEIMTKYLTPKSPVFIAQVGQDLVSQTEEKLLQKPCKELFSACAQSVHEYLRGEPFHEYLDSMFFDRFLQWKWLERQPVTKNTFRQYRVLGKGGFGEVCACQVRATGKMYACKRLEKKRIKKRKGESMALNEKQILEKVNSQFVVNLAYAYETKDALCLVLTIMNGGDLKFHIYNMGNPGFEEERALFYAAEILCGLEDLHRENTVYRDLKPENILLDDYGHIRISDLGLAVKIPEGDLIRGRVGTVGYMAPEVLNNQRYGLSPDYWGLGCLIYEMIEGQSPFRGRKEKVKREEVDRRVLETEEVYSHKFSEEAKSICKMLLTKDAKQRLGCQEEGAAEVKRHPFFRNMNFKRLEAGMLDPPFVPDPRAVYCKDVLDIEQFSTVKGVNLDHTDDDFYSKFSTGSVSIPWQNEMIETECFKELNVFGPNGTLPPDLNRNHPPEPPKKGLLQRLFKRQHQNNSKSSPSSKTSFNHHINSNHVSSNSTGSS
Chain of Tyrosine-protein kinase Lck (Homo sapiens) (P06239 2-509 limits assumed): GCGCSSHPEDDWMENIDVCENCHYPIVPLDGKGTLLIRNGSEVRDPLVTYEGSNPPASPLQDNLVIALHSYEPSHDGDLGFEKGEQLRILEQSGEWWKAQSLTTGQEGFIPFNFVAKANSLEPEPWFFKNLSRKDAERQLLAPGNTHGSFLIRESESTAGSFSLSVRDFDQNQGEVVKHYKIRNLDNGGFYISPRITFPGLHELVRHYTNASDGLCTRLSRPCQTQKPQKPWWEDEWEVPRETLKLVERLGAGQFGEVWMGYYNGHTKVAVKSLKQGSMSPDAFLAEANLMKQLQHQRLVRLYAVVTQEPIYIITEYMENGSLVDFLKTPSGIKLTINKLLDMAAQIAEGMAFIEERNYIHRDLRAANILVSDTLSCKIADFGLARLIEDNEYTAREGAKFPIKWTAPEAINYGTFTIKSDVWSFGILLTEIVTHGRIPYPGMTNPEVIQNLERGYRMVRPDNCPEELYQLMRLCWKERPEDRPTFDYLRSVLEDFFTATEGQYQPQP
Chain of Tyrosine-protein kinase BTK (Homo sapiens) (Q06187 whole entry): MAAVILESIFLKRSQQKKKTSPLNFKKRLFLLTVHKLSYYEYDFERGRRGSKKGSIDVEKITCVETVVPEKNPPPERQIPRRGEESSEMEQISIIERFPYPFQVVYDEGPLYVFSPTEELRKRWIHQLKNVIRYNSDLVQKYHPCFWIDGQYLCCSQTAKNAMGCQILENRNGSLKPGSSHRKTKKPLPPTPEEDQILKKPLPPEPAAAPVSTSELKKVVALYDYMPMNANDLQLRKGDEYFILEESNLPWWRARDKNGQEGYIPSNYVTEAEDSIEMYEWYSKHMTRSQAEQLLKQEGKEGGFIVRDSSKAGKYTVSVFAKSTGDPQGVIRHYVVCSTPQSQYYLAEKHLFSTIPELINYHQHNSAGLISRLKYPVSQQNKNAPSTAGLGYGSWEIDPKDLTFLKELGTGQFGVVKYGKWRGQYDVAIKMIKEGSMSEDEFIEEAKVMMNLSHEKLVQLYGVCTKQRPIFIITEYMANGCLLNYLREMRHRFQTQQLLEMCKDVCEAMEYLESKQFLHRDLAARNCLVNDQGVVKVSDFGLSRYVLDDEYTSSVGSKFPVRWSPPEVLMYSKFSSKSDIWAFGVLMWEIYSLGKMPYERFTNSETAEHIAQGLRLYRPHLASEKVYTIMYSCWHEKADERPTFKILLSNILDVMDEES
Chain of Proto-oncogene tyrosine-protein kinase Src (Homo sapiens) (P12931 2-536 limits assumed): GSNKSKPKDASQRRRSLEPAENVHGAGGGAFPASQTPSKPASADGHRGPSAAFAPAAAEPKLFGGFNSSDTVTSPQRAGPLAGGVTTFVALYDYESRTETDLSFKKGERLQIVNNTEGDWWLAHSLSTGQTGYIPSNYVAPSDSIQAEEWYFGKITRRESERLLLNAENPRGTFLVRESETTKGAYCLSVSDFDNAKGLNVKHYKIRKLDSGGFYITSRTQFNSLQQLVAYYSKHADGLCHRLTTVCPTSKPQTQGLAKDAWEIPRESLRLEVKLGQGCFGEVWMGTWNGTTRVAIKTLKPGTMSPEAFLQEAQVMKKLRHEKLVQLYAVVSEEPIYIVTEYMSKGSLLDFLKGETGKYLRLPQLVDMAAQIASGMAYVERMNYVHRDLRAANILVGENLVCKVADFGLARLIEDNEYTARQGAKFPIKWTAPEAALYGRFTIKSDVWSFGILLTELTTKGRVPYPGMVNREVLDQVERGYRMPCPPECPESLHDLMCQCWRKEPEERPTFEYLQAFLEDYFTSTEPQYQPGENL
Chain of Protein-tyrosine kinase 6 (Homo sapiens) (Q13882 whole entry, looked up): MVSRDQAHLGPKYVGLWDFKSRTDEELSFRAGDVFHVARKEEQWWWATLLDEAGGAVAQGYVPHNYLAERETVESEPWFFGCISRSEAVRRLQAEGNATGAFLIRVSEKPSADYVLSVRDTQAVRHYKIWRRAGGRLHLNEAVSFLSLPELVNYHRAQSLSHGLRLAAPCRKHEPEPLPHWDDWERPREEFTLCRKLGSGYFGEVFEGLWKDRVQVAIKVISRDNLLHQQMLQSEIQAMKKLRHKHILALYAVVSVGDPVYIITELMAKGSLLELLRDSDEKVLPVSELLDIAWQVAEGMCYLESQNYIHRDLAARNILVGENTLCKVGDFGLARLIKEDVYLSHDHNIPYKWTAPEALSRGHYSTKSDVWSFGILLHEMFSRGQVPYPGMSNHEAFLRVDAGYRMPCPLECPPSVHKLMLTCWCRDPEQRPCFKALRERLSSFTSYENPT
Chain of Serine/threonine-protein kinase PAK 2 (Homo sapiens) (Q13177 whole entry): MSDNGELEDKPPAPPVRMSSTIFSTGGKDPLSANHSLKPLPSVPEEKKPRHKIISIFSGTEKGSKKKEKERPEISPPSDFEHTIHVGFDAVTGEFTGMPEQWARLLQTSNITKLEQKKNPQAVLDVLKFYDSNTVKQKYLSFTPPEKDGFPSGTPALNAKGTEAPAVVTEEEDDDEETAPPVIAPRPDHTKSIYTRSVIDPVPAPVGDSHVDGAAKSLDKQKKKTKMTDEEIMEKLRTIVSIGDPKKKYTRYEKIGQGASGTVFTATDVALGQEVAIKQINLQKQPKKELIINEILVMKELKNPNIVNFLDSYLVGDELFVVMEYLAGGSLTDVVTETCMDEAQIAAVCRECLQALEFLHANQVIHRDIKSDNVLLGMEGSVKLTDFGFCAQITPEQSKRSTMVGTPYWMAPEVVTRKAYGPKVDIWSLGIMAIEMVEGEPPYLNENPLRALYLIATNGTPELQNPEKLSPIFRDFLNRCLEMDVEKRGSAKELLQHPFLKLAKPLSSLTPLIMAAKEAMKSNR
Chain of RAC-beta serine/threonine-protein kinase (Homo sapiens) (P31751 whole entry, the tested form may be a part): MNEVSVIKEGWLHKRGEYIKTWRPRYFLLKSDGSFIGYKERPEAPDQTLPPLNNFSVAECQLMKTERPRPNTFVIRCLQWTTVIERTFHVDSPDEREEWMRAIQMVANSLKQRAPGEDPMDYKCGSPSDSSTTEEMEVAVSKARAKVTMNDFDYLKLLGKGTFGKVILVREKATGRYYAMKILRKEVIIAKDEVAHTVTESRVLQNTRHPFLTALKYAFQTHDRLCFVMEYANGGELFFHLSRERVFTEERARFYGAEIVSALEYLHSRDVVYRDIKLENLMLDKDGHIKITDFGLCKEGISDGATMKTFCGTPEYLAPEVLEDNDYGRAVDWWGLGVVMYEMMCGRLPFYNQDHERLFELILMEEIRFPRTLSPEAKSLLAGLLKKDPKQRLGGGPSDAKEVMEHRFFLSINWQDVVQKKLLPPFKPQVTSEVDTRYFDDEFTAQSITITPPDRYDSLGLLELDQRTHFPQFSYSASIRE

Question: With CC1=Nc2c(F)cc(-c3nc(Nc4ccc(C5CCN(C)CC5)cn4)ncc3F)cc2C12CCCC2 [CROZBACICLIB] as the compound, how does the bioavailability [1] read?
Answer: The bioavailability was 66%.

Question: And the inhibition [2]?
Answer: The inhibition was 106%.

Question: What about the inhibition [3] of the same compound?
Answer: Its inhibition is -2%.

Question: And the inhibition [4]?
Answer: The inhibition was -5%.

Question: And the inhibition [5]?
Answer: The inhibition was -1%.

Question: What about the inhibition [6] of the same compound?
Answer: The inhibition was 3%.

Question: What about the inhibition [7] of the same compound?
Answer: Its inhibition is 0%.

Question: What about the inhibition [8] of the same compound?
Answer: The inhibition was -2%.

Question: What about the inhibition [9] of the same compound?
Answer: The inhibition was 3%.

Question: What about the inhibition [10] of the same compound?
Answer: The inhibition was 0%.

Question: What about the inhibition [11] of the same compound?
Answer: The inhibition was 9%.

Question: And the inhibition [12]?
Answer: Its inhibition is 34%.

Question: What about the inhibition [13] of the same compound?
Answer: Its inhibition is 89%.

Question: And the inhibition [14]?
Answer: The inhibition was 26%.

Question: What about the inhibition [15] of the same compound?
Answer: Its inhibition is 5%.

Question: And the inhibition [16]?
Answer: Its inhibition is 87%.

Question: What about the inhibition [17] of the same compound?
Answer: The inhibition was 1%.

Question: What about the inhibition [18] of the same compound?
Answer: Its inhibition is 13%.

Question: What about the inhibition [19] of the same compound?
Answer: The inhibition was -8%.

Question: What about the inhibition [20] of the same compound?
Answer: The inhibition was 28%.

Question: What about the inhibition [21] of the same compound?
Answer: The inhibition was 10%.

Question: And the inhibition [22]?
Answer: The inhibition was 8%.

Question: And the inhibition [23]?
Answer: Its inhibition is 34%.

Question: What about the AUC(0-t) at 24 h [24] of the same compound?
Answer: The AUC(0-t) at 24 h was 2130 ng·h/mL.

Question: What about the half-life [25] of the same compound?
Answer: The half-life was 6.03 h.

Question: What about the AUC(0-inf) [26] of the same compound?
Answer: Its AUC(0-inf) is 9110 ng·h/mL.

Question: And the Fu [27]?
Answer: The Fu was 0.04%.

Question: And the fAUC [28]?
Answer: The fAUC was 14.87 ng·h/g.

Question: What about the inhibition in vivo at 25 mg/kg (U-87 MG) of the same compound?
Answer: Its inhibition in vivo at 25 mg/kg is 96%.

Question: And the Activity (Mus musculus [29])?
Answer: Its Activity is “Non-Toxic”.

Question: What about the Activity (Mus musculus [30]) of the same compound?
Answer: Its Activity is 4.2%.

Question: What about the inhibition [31] of the same compound?
Answer: The inhibition was 17%.
